Consider 5 compounds from patent publication US20160051665A1, “INDUCTION OF IMMUNE RESPONSE” (priority 2010, published 2016).

One assay deals with T1, glucosidase I (Homo sapiens, UniProt Q13724).
T1 sequence (Q13724 1-837): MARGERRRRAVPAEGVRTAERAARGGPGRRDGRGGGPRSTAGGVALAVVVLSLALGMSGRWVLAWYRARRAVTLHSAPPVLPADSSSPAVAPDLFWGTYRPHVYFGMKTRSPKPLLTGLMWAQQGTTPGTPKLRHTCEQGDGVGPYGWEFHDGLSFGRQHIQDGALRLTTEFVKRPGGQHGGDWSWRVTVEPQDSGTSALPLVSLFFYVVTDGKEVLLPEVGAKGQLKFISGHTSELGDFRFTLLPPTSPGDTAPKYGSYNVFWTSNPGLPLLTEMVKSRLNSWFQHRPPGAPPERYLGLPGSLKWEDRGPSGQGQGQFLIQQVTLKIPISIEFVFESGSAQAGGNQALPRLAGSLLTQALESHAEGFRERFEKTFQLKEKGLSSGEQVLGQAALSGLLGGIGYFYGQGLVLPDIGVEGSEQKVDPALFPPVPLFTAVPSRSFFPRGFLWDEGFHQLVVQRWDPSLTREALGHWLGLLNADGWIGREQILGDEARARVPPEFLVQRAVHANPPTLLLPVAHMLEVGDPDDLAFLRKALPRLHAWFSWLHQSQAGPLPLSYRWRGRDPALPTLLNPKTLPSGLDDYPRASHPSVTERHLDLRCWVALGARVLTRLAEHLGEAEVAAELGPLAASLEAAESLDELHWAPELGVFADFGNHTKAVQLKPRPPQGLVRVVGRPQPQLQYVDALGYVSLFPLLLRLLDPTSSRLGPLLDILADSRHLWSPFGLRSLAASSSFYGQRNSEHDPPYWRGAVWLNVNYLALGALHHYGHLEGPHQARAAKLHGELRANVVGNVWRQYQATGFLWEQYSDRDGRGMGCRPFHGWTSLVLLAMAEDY
The following applies: cited from earlier work.

A further assay deals with oligosaccharide addition. The note with it: cited from earlier work.
Assay [1] has as its system HLA-A2 expressing T2 target cells. The experiment in a line: interferon-γ ELISpot: peptide-primed CTLs against peptide-pulsed T2 cells. The following applies: PBMCs of healthy HLA-A2 donors stimulated in vitro with peptide; FIG. 2A. The format is cell-based, human. As for the experimental part:
Heparinized blood from healthy HLA-A2 donors was purchased from Research Blood Components, LLC, (Brighton, Mass.). Peripheral blood mononuclear cells were purified and cultured as described (13, 21). After initial stimulation with synthetic peptide, T cells were re-stimulated with CD4/CD8 T cell depleted autologous monocytes pulsed with synthetic peptide at 10 μg/ml for 5 days. IL-2 treatment and in vitro re-stimulation were repeated thrice prior to use of in vitro expanded T cells in ELISpot assays.
In vitro expanded CTLs were used as effectors in ELISpot assays to assess antigen stimulated interferon-γ release according to the manufacturer's instructions (BD-Pharmingen, San Jose, Calif.). Target cells were HepG2 human hepatoma cells (HBV negative; American Type Culture Collection) or HBV-containing HepG2.2.15 cells (22). […]
Peptides presented on the surface of a cell in the context of the MHC class I complex should be recognized with high sensitivity upon incubation with cognate peptide-primed CTLs, with specific killing of the target cells. […] Target cell recognition was quantified by interferon-γ ELISpot assay.
The ability of in vitro generated CTLs to recognize and secrete interferon-γ was evaluated by ELISpot assay. […] The P value was calculated from a Student's t-Test analysis of experimental results.

In assay [2] the test system is woodchuck hepatitis virus (WHV). The note with it: previous study (ref. 11); cited from earlier work.

In the case of `O[C@H]1[C@H](O)[C@@H](O)CN2CC[C@H](O)[C@H]12` [Castanospermine], the “potency as inhibitor of glucosidase I relative to deoxynojirimycin” value at glucosidase I is given as “more potent inhibitors of glucosidase I than deoxynojirimycin”. In addition, the “prevention of oligosaccharide addition” value in the assay on oligosaccharide addition is reported as “does not”.

For the compound “KPSDGDCTC [D-peptide, de-N-glycosylated 'D' substituted HBs peptide]”, the “elicitation of specific CTLs that recognize T2 target cells” value in assay [1] is listed as “effective elicitors of specific CTLs”.

With `OC[C@H]1NC[C@H](O)[C@@H](O)[C@@H]1O` [deoxynojirimycin], in the assay with oligosaccharide addition, the “prevention of oligosaccharide addition” value was “prevents oligosaccharide addition some fraction of the time”.

For `CCCCCCCCCN1C[C@H](O)[C@@H](O)[C@H](O)[C@H]1CO` [N-nonyl deoxynojirimycin], the “antiviral activity in woodchucks” value in assay [2] is reported as “antiviral activity had previously been observed”.

Regarding KPSDGNCTC [N-peptide], the “elicitation of specific CTLs that recognize T2 target cells” value in assay [1] is recorded as “effective elicitors of specific CTLs”.
